# Source: patent US20240092759A1, “Non-Covalent Inhibitors of the Main Protease of SARS-CoV-2 and Methods of Use” (YALE UNIVERSITY, priority 2021, published 2024)
# Several values for one entry are separate records, joined by “and”; a condition that tells them apart may be missing. Identical values can stand only once. Like-named read-outs stand apart in the source and are kept apart here.
# Biological target: recombinant SARS-Cov-2 M^pro (Severe acute respiratory syndrome coronavirus 2 (2019-nCoV) (SARS-CoV-2), UniProt P0DTD1)
# Experiment: biochemical
# [1] = read-out: IC50 (μM), inhibition of SARS-CoV-2 M^pro, Table 1, 100 nM M^pro, triplicate, perampanel: fluorescence of compound interfered with assay
# [2] = read-out: IC50 (μM), inhibition of SARS-Cov-2 M^pro, Table 4
# [3] = IC50 (μM), inhibition of SARS-Cov-2 M^pro, Table 4
Compound,IC50 (read-out: IC50) [µM],IC50 [1] [µM],IC50 [2] [µM],further results
"N#Cc1ccccc1-c1cc(-c2cccc(Cl)c2)c(=O)n(-c2cccnc2)c1 [Compound 6, 2-(3-(3-Chlorophenyl)-2-oxo-2H-[1,3′-bipyridin]-5-yl)benzonitrile]",10,9.99 ± 2.5,,
"O=c1[nH]cc(-c2cc(-c3cccc(Cl)c3)c(=O)n(-c3cccnc3)c2)c(=O)[nH]1 [Compound 8, 5-(3-(3-Chlorophenyl)-2-oxo-2H-[1,3′-bipyridin]-5-yl)pyrimidine-2,4(1H,3H)-dione]",6.4,,6.38 ± 1.21,
N#Cc1ccccc1-c1cc(-c2cccc(Cl)c2)c(=O)n(-c2ccc[n+]([O-])c2)c1 [Compound 10],,,15.6 ± 2.37,
N#Cc1ccccc1-c1cc(-c2cc(Cl)cc(Cl)c2)c(=O)n(-c2ccc[n+]([O-])c2)c1 [Compound 11],,,5 to 20,
"N#Cc1ccccc1-c1cc(-c2cc(Cl)cc(OCc3ccccc3)c2)c(=O)n(-c2cccnc2)c1 [Compound 14, 2-(3-(3-(Benzyloxy)-5-chlorophenyl)-2-oxo-2H-[1,3′-bipyridin]-5-yl)benzonitrile]",0.28,0.28 ± 0.05,0.28 ± 0.05,
"COCCOc1cc(Cl)cc(-c2cc(-c3ccccc3C#N)cn(-c3cccnc3)c2=O)c1 [Compound 16, 2-(3-(3-Chloro-5-(2-methoxyethoxy)phenyl)-2-oxo-2H-[1,3′-bipyridin]-5-yl)benzonitrile]",,0.47 ± 0.02,0.47 ± 0.02,
"N#Cc1ccccc1-c1cc(-c2cc(Cl)cc(OCCc3ccccc3)c2)c(=O)n(-c2cccnc2)c1 [Compound 17, 2-(3-(3-Chloro-5-phenethoxyphenyl)-2-oxo-2H-[1,3′-bi-pyridin]-5-yl)benzonitrile]",0.51,0.51 ± 0.02,0.51 ± 0.015,
"COc1cc(Cl)cc(-c2cc(-c3c[nH]c(=O)[nH]c3=O)cn(-c3cccnc3)c2=O)c1 [Compound 18, 5-(3-(3-Chloro-5-methoxyphenyl)-2-oxo-2H-[1,3′-bipyridin]-5-yl)pyrimidine-2,4(1H,3H)-dione]",1.2,1.2 ± 0.03,1.2 ± 0.03,
N#Cc1cccc(-c2cc(-c3c[nH]c(=O)[nH]c3=O)cn(-c3cccnc3)c2=O)c1 [Compound 19],,,10,
COc1cc(F)cc(-c2cc(-c3c[nH]c(=O)[nH]c3=O)cn(-c3cccnc3)c2=O)c1 [Compound 20],,,10 to 100,
O=c1[nH]cc(-c2cc(-c3cc(Cl)cc(OCc4ccccc4)c3)c(=O)n(-c3cccnc3)c2)c(=O)[nH]1 [Compound 21],0.128,,0.128 ± 0.015,
COc1ccc(-c2cc(-c3cccc(Cl)c3)c(=O)n(-c3cccnc3)c2)c(C#N)n1 [Compound 22],,,10 to 100,
N#Cc1[nH]c(=O)ccc1-c1cc(-c2cccc(Cl)c2)c(=O)n(-c2cccnc2)c1 [Compound 23],,,10,
"CCCCOc1cc(Cl)cc(-c2cc(-c3c[nH]c(=O)[nH]c3=O)cn(-c3cccnc3)c2=O)c1 [Compound 25, 5-(3-(3-Butoxy-5-chlorophenyl)-2-oxo-2H-[1,3′-bipyridin]-5-yl)pyrimidine-2,4(1H,3H)-dione]",,0.25 ± 0.09,0.25 ± 0.089,
"CC(C)CCOc1cc(Cl)cc(-c2cc(-c3c[nH]c(=O)[nH]c3=O)cn(-c3cccnc3)c2=O)c1 [Compound 26, 5-(3-(3-Chloro-5-(isopentyloxy)phenyl)-2-oxo-2H-[1,3′-bipyridin]-5-yl)pyrimidine-2,4(1H, 3H)-dione]",,0.19 ± 0.03,0.19 ± 0.026,
CC(C)(O)CCOc1cc(Cl)cc(-c2cc(-c3c[nH]c(=O)[nH]c3=O)cn(-c3cccnc3)c2=O)c1 [Compound 28],,,0.25 to 0.5,
"O=c1[nH]cc(-c2cc(-c3cc(Cl)cc(OCCc4ccccc4)c3)c(=O)n(-c3cccnc3)c2)c(=O)[nH]1 [Compound 29, 5-(3-(3-Chloro-5-phenethoxyphenyl)-2-oxo-2H-[1,3′-bipyridin]-5-yl)pyrimidine-2,4(1H, 3H)-dione]",0.11,0.11 ± 0.013,,
COc1cc(CCOc2cc(Cl)cc(-c3cc(-c4ccccc4C#N)cn(-c4cccnc4)c3=O)c2)cc(OC)c1 [Compound 30],,,> 1,
"Cc1ccccc1COc1cc(Cl)cc(-c2cc(-c3c[nH]c(=O)[nH]c3=O)cn(-c3cccnc3)c2=O)c1 [Compound 31, 5-(3-(3-Chloro-5-((2-methylbenzyl)oxy)phenyl)-2-oxo-2H-[1,3′-bipyridin]-5-yl)pyrimidine-2,4(1H,3H)-dione]",,0.1 ± 0.007,,IC50 (IC50): 0.11 µM
"Cc1cccc(COc2cc(Cl)cc(-c3cc(-c4c[nH]c(=O)[nH]c4=O)cn(-c4cccnc4)c3=O)c2)c1 [Compound 32, 5-(3-(3-Chloro-5-((3-methylbenzyl)oxy)phenyl)-2-oxo-2H-[1,3′-bipyridin]-5-yl)pyrimidine-2,4(1H,3H)-dione]",,0.11 ± 0.035,0.11 ± 0.035,IC50 (IC50): 0.1 µM
CCNC(=O)COc1cc(Cl)cc(-c2cc(-c3ccccc3C#N)cn(-c3cccnc3)c2=O)c1 [Compound 33],,,0.5 to 1,
"O=c1[nH]cc(-c2cc(-c3cc(Cl)cc(OCc4ccccc4F)c3)c(=O)n(-c3cccnc3)c2)c(=O)[nH]1 [Compound 34, 5-(3-(3-Chloro-5-((2-fluorobenzyl)oxy)phenyl)-2-oxo-2H-[1,3′-bipyridin]-5-yl)pyrimidine-2,4(1H,3H)-dione]",0.018 to 0.037,0.024 ± 0.007,0.024,
"O=c1[nH]cc(-c2cc(-c3cc(Cl)cc(OCc4cccc(F)c4)c3)c(=O)n(-c3cccnc3)c2)c(=O)[nH]1 [Compound 35, 5-(3-(3-Chloro-5-((3-fluorobenzyl)oxy)phenyl)-2-oxo-2H-[1,3′-bipyridin]-5-yl)pyrimidine-2,4(1H,3H)-dione]",0.018 to 0.037,,0.037,
"O=c1[nH]cc(-c2cc(-c3cc(Cl)cc(OCc4c(F)cccc4F)c3)c(=O)n(-c3cccnc3)c2)c(=O)[nH]1 [Compound 36, 5-(3-(3-Chloro-5-((2,6-difluorobenzyl)oxy)phenyl)-2-oxo-2H-[1,3′-bipyridin]-5-yl)pyrimidine-2,4(1H,3H)-dione]",0.018 to 0.037,,0.036,
"O=c1[nH]cc(-c2cc(-c3cc(Cl)cc(OCC4CC4)c3)c(=O)n(-c3cccnc3)c2)c(=O)[nH]1 [Compound 40, 5-(3-(3-Chloro-5-(cyclopropylmethoxy)phenyl)-2-oxo-2H-[1,3′-bipyridin]-5-yl)pyrimidine-2,4(1H,3H)-dione]",,,,IC50 [3]: ~290 µM
O=c1[nH]cc(-c2cc(-c3cc(Cl)cc(OCC4CC4)c3)c(=O)n(-c3cccnc3)c2)c(=O)[nH]1 [Compound 43],,,0.037 ± 0.004,
O=c1[nH]cc(-c2cc(-c3cc(F)c(F)c(OCc4ccccc4F)c3)c(=O)n(-c3cccnc3)c2)c(=O)[nH]1 [Compound 45],,,0.03 ± 0.004,
O=c1[nH]cc(-c2cc(-c3cc(Cl)cc(OCc4ccsc4Cl)c3)c(=O)n(-c3cccnc3)c2)c(=O)[nH]1 [Compound 49],,,0.0265 ± 0.004,
"N#Cc1ccccc1-c1cc(-c2ccccn2)cn(-c2ccccc2)c1=O [Perampanel, perampanel, reference compound]",,,,"IC50 (IC50): 100 to 250 µM and > 100 µM; IC50 (IC50 (μM), inhibition of SARS-CoV-2 M^pro, Table 1, 100 nM M^pro, triplicate, perampanel: fluorescence of compound interfered with assay): 100 to 250 µM; IC50 [3]: 100 µM"
